From ChEMBL document CHEMBL1909046, “DrugMatrix in vitro pharmacology data”

Key:
[1] = biological target: Delta-type opioid receptor (Homo sapiens, UniProt P41143); format: cell membranes, HEK293, Membrane; conditions: hek293; also: in other assays of this panel Not Active means under 50% inhibition at 10 µM
[2] = DRUGMATRIX: GABAA, Chloride Channel, TBOB radioligand binding (ligand: [3H] TBOB); format: cell membranes, Rattus norvegicus, Wistar, Cerebral cortex, Membrane; conditions: Not Active = under 50% inhibition at 10 µM
Vasopressin V1a receptor = Vasopressin V1a receptor (Homo sapiens, UniProt P37288); format: cell membranes, Membrane; conditions: hek293; also: in other assays of this panel Not Active means under 50% inhibition at 10 µM
Chain of Vasopressin V1a receptor (P37288 whole entry): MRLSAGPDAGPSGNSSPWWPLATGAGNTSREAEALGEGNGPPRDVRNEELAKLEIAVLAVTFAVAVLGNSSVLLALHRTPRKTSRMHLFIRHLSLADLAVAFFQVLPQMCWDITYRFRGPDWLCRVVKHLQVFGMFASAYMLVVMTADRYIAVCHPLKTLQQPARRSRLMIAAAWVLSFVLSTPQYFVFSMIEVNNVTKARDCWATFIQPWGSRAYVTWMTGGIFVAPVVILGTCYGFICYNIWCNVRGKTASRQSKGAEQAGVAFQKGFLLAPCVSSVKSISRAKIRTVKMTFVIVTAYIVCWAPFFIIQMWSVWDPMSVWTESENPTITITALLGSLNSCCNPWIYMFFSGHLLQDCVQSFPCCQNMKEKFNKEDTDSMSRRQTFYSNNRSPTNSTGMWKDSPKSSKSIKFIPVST

[3] = biological target: 5-hydroxytryptamine receptor 2B (Homo sapiens, UniProt P41595); format: cell membranes, CHO-K1, Membrane; conditions: for Ki: read-out: Ki; as to all read-outs here: in other assays of this panel Not Active means under 50% inhibition at 10 µM
Chain of 5-hydroxytryptamine receptor 2B (P41595 whole entry): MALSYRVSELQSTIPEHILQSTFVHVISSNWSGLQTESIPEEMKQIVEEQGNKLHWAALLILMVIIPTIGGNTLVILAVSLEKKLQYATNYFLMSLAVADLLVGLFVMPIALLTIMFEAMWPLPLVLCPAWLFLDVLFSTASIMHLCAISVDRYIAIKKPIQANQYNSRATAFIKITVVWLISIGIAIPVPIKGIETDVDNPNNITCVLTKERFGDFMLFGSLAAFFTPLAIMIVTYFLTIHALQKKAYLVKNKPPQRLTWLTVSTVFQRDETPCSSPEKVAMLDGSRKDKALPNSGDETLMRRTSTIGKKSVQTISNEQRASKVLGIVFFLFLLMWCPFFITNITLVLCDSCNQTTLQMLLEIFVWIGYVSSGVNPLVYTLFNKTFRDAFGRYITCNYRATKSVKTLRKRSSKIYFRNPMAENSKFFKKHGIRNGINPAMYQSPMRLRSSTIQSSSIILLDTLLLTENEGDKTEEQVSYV

Cannabinoid receptor 1 = Cannabinoid receptor 1 (Homo sapiens, UniProt P21554); format: cell membranes, Membrane; conditions: chem-1; also: in other assays of this panel Not Active means under 50% inhibition at 10 µM
Chain of Cannabinoid receptor 1 (P21554 whole entry): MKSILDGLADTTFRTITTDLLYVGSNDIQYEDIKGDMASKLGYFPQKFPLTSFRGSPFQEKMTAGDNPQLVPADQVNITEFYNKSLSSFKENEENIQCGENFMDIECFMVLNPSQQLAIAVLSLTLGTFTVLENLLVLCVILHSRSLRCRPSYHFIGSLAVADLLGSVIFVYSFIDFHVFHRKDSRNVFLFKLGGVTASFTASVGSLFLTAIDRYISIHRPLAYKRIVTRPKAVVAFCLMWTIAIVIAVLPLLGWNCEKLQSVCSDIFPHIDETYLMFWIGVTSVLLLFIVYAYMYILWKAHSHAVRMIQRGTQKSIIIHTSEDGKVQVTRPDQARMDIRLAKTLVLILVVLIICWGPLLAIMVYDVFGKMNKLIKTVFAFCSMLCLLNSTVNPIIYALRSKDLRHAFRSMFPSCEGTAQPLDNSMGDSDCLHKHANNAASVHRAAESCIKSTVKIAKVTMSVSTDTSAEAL

[4] = DRUGMATRIX: beta-Lactamase enzyme inhibition (substrate: Nitrocefin); set-up: species or system Bacillus cereus; conditions: Not Active = under 50% inhibition at 10 µM
Cytochrome P450 2C9 = Cytochrome P450 2C9 (Homo sapiens, UniProt P11712); conditions: bti-tn-5b1-4; also: in other assays of this panel Not Active means under 50% inhibition at 10 µM
Chain of Cytochrome P450 2C9 (P11712 whole entry): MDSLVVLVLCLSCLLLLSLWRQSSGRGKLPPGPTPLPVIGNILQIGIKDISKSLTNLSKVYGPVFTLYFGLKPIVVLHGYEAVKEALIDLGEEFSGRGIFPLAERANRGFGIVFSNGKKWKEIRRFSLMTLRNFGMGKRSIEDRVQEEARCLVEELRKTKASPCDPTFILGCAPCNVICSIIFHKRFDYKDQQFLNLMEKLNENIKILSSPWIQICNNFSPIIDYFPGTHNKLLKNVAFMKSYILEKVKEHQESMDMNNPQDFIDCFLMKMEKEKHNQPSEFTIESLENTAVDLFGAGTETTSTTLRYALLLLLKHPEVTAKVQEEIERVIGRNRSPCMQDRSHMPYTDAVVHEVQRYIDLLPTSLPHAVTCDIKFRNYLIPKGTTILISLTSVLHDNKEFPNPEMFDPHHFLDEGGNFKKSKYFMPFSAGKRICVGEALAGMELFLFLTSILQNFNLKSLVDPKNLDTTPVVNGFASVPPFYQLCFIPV

[5] = biological target: T1, Muscarinic acetylcholine receptor M5 (Homo sapiens, UniProt P08912); format: cell membranes, Membrane; conditions: cho-k1; also: in other assays of this panel Not Active means under 50% inhibition at 10 µM
T1 sequence (P08912 whole entry): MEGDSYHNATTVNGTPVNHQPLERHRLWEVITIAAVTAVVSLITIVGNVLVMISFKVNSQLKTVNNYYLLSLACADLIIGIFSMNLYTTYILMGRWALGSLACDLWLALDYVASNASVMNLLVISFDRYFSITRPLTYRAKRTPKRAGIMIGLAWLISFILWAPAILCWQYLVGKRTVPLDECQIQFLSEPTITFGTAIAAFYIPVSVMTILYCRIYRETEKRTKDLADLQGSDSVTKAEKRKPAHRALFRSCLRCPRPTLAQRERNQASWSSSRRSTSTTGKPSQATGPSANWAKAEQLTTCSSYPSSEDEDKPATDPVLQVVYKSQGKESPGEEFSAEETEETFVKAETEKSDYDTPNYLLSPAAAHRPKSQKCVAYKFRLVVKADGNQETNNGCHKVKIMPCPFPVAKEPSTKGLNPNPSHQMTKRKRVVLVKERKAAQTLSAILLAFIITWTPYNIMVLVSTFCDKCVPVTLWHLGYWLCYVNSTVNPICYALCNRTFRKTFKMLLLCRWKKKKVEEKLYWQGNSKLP

Chain of Delta-type opioid receptor (P41143 whole entry): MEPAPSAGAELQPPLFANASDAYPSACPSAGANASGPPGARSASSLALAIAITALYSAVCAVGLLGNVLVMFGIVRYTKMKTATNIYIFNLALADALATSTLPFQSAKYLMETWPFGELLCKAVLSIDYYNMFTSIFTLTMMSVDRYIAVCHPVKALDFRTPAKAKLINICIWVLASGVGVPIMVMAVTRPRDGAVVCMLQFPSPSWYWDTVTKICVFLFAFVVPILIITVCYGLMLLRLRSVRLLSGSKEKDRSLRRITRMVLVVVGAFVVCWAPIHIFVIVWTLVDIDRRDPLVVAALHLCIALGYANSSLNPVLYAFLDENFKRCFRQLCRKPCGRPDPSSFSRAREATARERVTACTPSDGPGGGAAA

Row | SMILES | IC50 [1] | IC50 [2] | Ki [2] | IC50 (Vasopressin V1a receptor) | IC50 ([3]; cho-k1) | IC50 (Cannabinoid receptor 1) | IC50 [4] | Ki [4] | IC50 (Cytochrome P450 2C9) | Ki (Cytochrome P450 2C9) | IC50 [5] | IC50 ([3]; read-out: IC50) | Ki [3]
1 | Nn1nnc2ccccc21 | Not Active | Not Active | Not Active | Not Active | Not Active | Not Active | Not Active | Not Active | Not Active | Not Active | Not Active |  | 
2 | CC[C@]1(O)CC[C@H]2[C@@H]3CCC4=CCCC[C@@H]4[C@H]3CC[C@@]21C | Not Active | Not Active | Not Active | Not Active | Not Active | Not Active | Not Active | Not Active | Not Active | Not Active | Not Active |  | 
3 | N[C@@H](Cc1ccc(F)cc1)C(=O)O | Not Active | Not Active | Not Active | Not Active | Not Active | Not Active | Not Active | Not Active |  |  | Not Active |  | 
4 | CCOC(=O)[C@H](CCc1ccccc1)N[C@@H](C)C(=O)N1Cc2ccccc2C[C@H]1C(=O)O | Not Active | Not Active | Not Active | Not Active | Not Active | Not Active | Not Active | Not Active | Not Active | Not Active | Not Active |  | 
5 | O=C(c1ccccc1Cl)N1CCC(Cc2ccccc2)CC1 | Not Active | Not Active | Not Active | Not Active |  | Not Active | Not Active | Not Active |  |  | Not Active | 1510 nM | 960 nM
6 | CCOC(=O)[C@H](CCc1ccccc1)N[C@@H](C)C(=O)N1CCC[C@H]1C(=O)O | Not Active | Not Active | Not Active | Not Active | Not Active | Not Active | Not Active | Not Active | Not Active | Not Active | Not Active |  | 
7 | Clc1cc2c(cc1Cl)Oc1cc(Cl)c(Cl)cc1O2 [2,3,7,8-TETRACHLORODIBENZO-P-DIOXIN] | Not Active | Not Active | Not Active | Not Active | Not Active | Not Active | Not Active | Not Active | Not Active | Not Active | Not Active |  | 
8 | C=C1/C(=C\C=C2/CCC[C@]3(C)[C@@H]([C@H](C)CCCC(C)C)CC[C@@H]23)C[C@@H](O)C[C@@H]1O [ALFACALCIDOL] | Not Active | Not Active | Not Active | Not Active | Not Active | Not Active | Not Active | Not Active | Not Active | Not Active | Not Active |  | 
9 | CCCCCC[C@H]1C(=O)O[C@H](C)[C@H](NC(=O)c2cccc(NC=O)c2O)C(=O)O[C@@H](C)[C@@H]1OC(=O)CC(C)C [ANTIMYCIN A] | Not Active | Not Active | Not Active | Not Active | Not Active | Not Active | Not Active | Not Active | Not Active | Not Active | Not Active |  | 
10 | C[C@@H]1CC[C@H]2[C@@H](C)C(=O)O[C@@H]3O[C@@]4(C)CC[C@@H]1[C@]32OO4 [ARTEMISININ] | Not Active | Not Active | Not Active | Not Active | Not Active | Not Active | Not Active | Not Active |  |  | Not Active |  | 
11 | CO[C@H]1[C@@H](O)[C@H](N)[C@@H](O[C@H]2O[C@H]([C@H](C)N)CC[C@H]2N)[C@H](O)[C@@H]1N(C)C(=O)CN [ASTROMICIN] | Not Active | Not Active | Not Active | Not Active | Not Active | Not Active | Not Active | Not Active | Not Active | Not Active | Not Active |  | 
12 | [N-]=[N+]=CC(=O)OC[C@H](N)C(=O)O [AZASERINE] | Not Active | Not Active | Not Active | Not Active | Not Active | Not Active | Not Active | Not Active | Not Active | Not Active | Not Active |  | 
13 | CCc1oc2ccccc2c1C(=O)c1cc(Br)c(O)c(Br)c1 [BENZBROMARONE] | Not Active | Not Active | Not Active | Not Active |  | Not Active | Not Active | Not Active |  |  | Not Active | 1800 nM | 1150 nM
